Measurements taken from patent publication US11708344B2, “Flavone derivatives for the treatment and prophylaxis of hepatitis B virus disease” (Hoffmann-La Roche Inc., priority 2018, dated 2023).
Values belong to the molecule of their own block, whether it stands above or below them.

How the values were obtained:
[1] = system: HBeAg (surrogate marker for cccDNA) in HepDES19 cells; test: Engineered HepDES19 primary screen assay (HBeAg ELISA); type: cell-based, HBV; details: Hepatitis B virus, HepDES19, 120 h, read-out: IC50 (HBeAg level, HepDES19 primary screen assay), HepDES19 cells, 5 days compound incubation, HBeAg ELISA
From the text: The assay was employed to screen for novel cccDNA inhibitors. HepDES19 is a cccDNA-producing cell line. In this cell line, HBeAg in the cell culture supernatant as surrogate marker, as HBeAg production depends on cccDNA level and activity. HepDES19 is an engineered cell line which contains a 1.1 unit length HBV genome, and pgRNA transcription from the transgene is controlled by Tetracycline (Tet). In the absence of Tet, pgRNA transcription will be induced, but HBV e antigen (HBeAg) could not be produced from this pgRNA due to very short leader sequence before the HBeAg start codon and the start codon is disrupted. Only after cccDNA is formed, the missing leader sequence and start codon mutation would be restored from the 3′-terminal redundancy of pgRNA, and then HBeAg could be synthesized. Therefore, HBeAg could be used as a surrogate marker for cccDNA (Zhou, T. et al., Antiviral Res. (2006), 72(2), 116-124; Guo, H. et al., J. Virol. (2007), 81(22), 12472-12484).
HepDES19 cells were seeded at 2×10^6 cells per T150 flask and cultured with the culture medium (Dulbecco's Modified Eagle Medium: Nutrient Mixture F-12 [DMEM-F12, Gibco Cat. 11320-82], 10% Fetal Bovine Serum [FBS, Clontech Cat. 631101], 0.1 mM Non-Essential Amino Acids Solution [NEAA, Gibco Cat. 11140-050], 50 μg/mL Penicillin-Streptomycin [PS, Invitrogen Cat. 15140-163], 500 μg/mL Geneticin [G418, Invitrogen Cat. 10131-027]) containing 3 μg/mL Tet (Sigma, Cat. 87128) for 5 days. Cells were then seeded at 4×10^6 cells per T150 in the same culture medium as described above in the absence of Tet for 8 days. Cells were then harvested and frozen at density of 2×10^6 cells per mL. For compound testing, the frozen cells were thawed and seeded into 96-well plates at a density of 6×10^4 cells per well. At 24 hours after seeding, half log serial dilutions of compounds made with Dimethyl sulfoxide (DMSO, Sigma, Cat. D2650) were further diluted with the same culture medium as described above before they were added to the cells to reach desired final compound concentrations and 1% DMSO concentration. Plates were then incubated at 37° C. for another 5 days before measurement of HBeAg level and cell viability. […] HBeAg level were measured with enzyme-linked immunosorbent assay (ELISA) kit (Shanghai Kehua Diagnostic Medical Products Co., Ltd). Cell viability was assessed using Cell Counting Kit-8 (DonJindo, Cat. CK04-20). IC50 values were derived from the dose-response curve using 4 parameter logistic curve fit method.
The compounds of the present invention were tested for their capacity to inhibit extracellular HBeAg level as described herein.

[2] = Human microsome stability assay; type: in vitro ADME; details: human liver microsomes, 1 μM test compound, 0.5 mg/mL microsomal protein, 37° C., pH 7.4, 0-30 minutes
Description: The human microsomal stability assay is used for early assessment of metabolic stability of a test compound in human liver microsomes.
Human liver microsomes (Cat. NO.: 452117, Corning, USA; Cat. NO.: H2610, Xenotech, USA) were preincubated with test compound for 10 minutes at 37° C. in 100 mM potassium phosphate buffer, pH 7.4. The reactions were initiated by adding NADPH regenerating system. The final incubation mixtures contained 1 μM test compound, 0.5 mg/mL liver microsomal protein, 1 mM MgCl2, 1 mM NADP, 1 unit/mL isocitric dehydrogenase and 6 mM isocitric acid in 100 mM potassium phosphate buffer, pH 7.4. After incubation times of 0, 3, 6, 9, 15 and 30 minutes at 37° C., 300 μL of cold ACN (including internal standard) was added to 100 μL incubation mixture to terminate the reaction. Following precipitation and centrifugation, the amount of compound remaining in the samples was determined by LC-MS/MS. Controls of no NADPH regenerating system at zero and 30 minutes were also prepared and analyzed.

SMILES: COc1c(-c2ccc(C(F)(F)F)cc2OCCC(=O)O)oc2c(Cl)cccc2c1=O [Example A047, 3-[2-(8-chloro-3-methoxy-4-oxo-chromen-2-yl)-5-(trifluoromethyl)phenoxy]propanoic acid]
IC50 [1]: 1830 nM
Clearance of Human microsome [2]: 6.15 mL/min/kg

SMILES: O=c1cc(-c2ccc(C(F)(F)F)cc2OCCO[C@H]2C[C@@H](C(=O)O)C2)oc2c(Cl)ccc(O)c12 [Example C099, cis-3-[2-[2-(8-chloro-5-hydroxy-4-oxo-chromen-2-yl)-5-(trifluoromethyl)phenoxy]ethoxy]cyclobutanecarboxylic acid]
IC50 [1]: 15700 nM
Clearance of Human microsome [2]: 7.11 mL/min/kg

Clearance of Human microsome [2]: 6.15 mL/min/kg
SMILES: Cc1cc(-c2cc(=O)c3cccc(Cl)c3o2)c(OCC(=O)O)cc1Br [Example A073, 2-[5-bromo-2-(8-chloro-4-oxo-chromen-2-yl)-4-methyl-phenoxy]acetic acid]

SMILES: COc1ccc2oc(-c3ccccc3OC)cc(=O)c2c1 [Example F-2, 6-methoxy-2-(2-methoxyphenyl)chromen-4-one, reference compound]
IC50 [1]: > 50000 nM

SMILES: O=C(O)c1ccc(OCCOc2cc(Br)ccc2-c2cc(=O)c3cccc(Cl)c3o2)cc1 [Example C107, 4-[2-[5-bromo-2-(8-chloro-4-oxo-chromen-2-yl)phenoxy]ethoxy]benzoic acid]
IC50 [1]: 991 nM

SMILES: O=c1cc(-c2ccc(Br)cc2OCCO[C@H]2C[C@@H](C(=O)O)C2)oc2c(Cl)c(C(F)(F)F)ccc12 [Example C048-A, Cis-3-[2-[5-bromo-2-[8-chloro-4-oxo-7-(trifluoromethyl)chromen-2-yl]phenoxy]ethoxy]cyclobutanecarboxylic acid]
IC50 [1]: 5120 nM

SMILES: O=c1cc(-c2ccc(Br)cc2OCCCO[C@H]2C[C@H](C(=O)O)C2)oc2c(Cl)cccc12 [Example C056-B, Trans-3-[3-[5-bromo-2-(8-chloro-4-oxo-chromen-2-yl)phenoxy]propoxy]cyclobutanecarboxylic acid]
IC50 [1]: 2180 nM

SMILES: CC(C)c1ccc(-c2cc(=O)c3cccc(Cl)c3o2)c(O[C@H]2C[C@@H](C(=O)O)C2)c1 [Example B020-A, Cis-3-[2-(8-chloro-4-oxo-chromen-2-yl)-5-isopropyl-phenoxy]cyclobutanecarboxylic acid]
IC50 [1]: 2840 nM

SMILES: O=c1cc(-c2ccc(Br)cc2O[C@H]2C[C@H](C(=O)O)C2)oc2c(Cl)ccc(O)c12 [Example B036-B, trans-3-[5-bromo-2-(8-chloro-5-hydroxy-4-oxo-chromen-2-yl)phenoxy]cyclobutanecarboxylic acid]
IC50 [1]: 407 nM

SMILES: COc1cccc(S(=O)(=O)N2C[C@@H](Oc3cc(C(F)(F)F)ccc3-c3cc(=O)c4cccc(Cl)c4o3)C[C@H]2C(=O)O)c1 [Example B079]
IC50 [1]: 1520 nM

SMILES: O=C(O)COc1cc(OC(F)(F)F)ccc1-c1cc(=O)c2cccc(Cl)c2o1 [Example A048, 2-[2-(8-chloro-4-oxo-chromen-2-yl)-5-(trifluoromethoxy)phenoxy]acetic acid]
IC50 [1]: 9380 nM

SMILES: COc1ccc(-c2cc(=O)c3cccc(Cl)c3o2)c(O[C@H]2C[C@H](C(=O)O)C2)c1 [Example B011-B, Trans-3-[2-(8-chloro-4-oxo-chromen-2-yl)-5-methoxy-phenoxy]cyclobutanecarboxylic acid]
IC50 [1]: 3480 nM

SMILES: O=c1cc(-c2cc(Br)ccc2OCCO[C@H]2C[C@H](C(=O)O)C2)oc2c(Cl)cc(F)cc12 [Example C053-B, Trans-3-[2-[4-bromo-2-(8-chloro-6-fluoro-4-oxo-chromen-2-yl)phenoxy]ethoxy]cyclobutanecarboxylic acid]
IC50 [1]: 5590 nM

SMILES: O=C(O)c1cccc(OCCOc2cc(Br)ccc2-c2cc(=O)c3cccc(Cl)c3o2)c1 [Example C108, 3-[2-[5-bromo-2-(8-chloro-4-oxo-chromen-2-yl)phenoxy]ethoxy]benzoic acid]
IC50 [1]: 1250 nM

SMILES: CS(=O)(=O)NC(=O)[C@H]1C[C@H](OCCOc2cc(Br)ccc2-c2cc(=O)c3cccc(Cl)c3o2)C1 [Example C123, Trans-3-[2-[5-bromo-2-(8-chloro-4-oxo-chromen-2-yl)phenoxy]ethoxy]-N-methylsulfonyl-cyclobutanecarboxamide]
IC50 [1]: 6530 nM

SMILES: O=C(O)C1CCC(OCCOc2cc(Br)ccc2-c2cc(=O)c3cccc(Cl)c3o2)C1 (stereo not shown) [Example C106, 3-[2-[5-bromo-2-(8-chloro-4-oxo-chromen-2-yl)phenoxy]ethoxy]cyclopentanecarboxylic acid]
IC50 [1]: 2100 nM

SMILES: O=C(O)[C@H]1CC[C@@H](Oc2cc(Br)ccc2-c2cc(=O)c3cccc(Cl)c3o2)C1 (relative stereo) [Example B028-A, Cis-3-[5-bromo-2-(8-chloro-4-oxo-chromen-2-yl)phenoxy]cyclopentanecarboxylic acid]
IC50 [1]: 471 nM

SMILES: Cc1ccc(-c2cc(=O)c3c(O)ccc(Cl)c3o2)c(O[C@H]2C[C@H](C(=O)O)C2)c1 [Example B037-B, Trans-3-[2-(8-chloro-5-hydroxy-4-oxo-chromen-2-yl)-5-methyl-phenoxy]cyclobutanecarboxylic acid]
IC50 [1]: 149 nM

SMILES: CC(C)(OCCCOc1cc(C(F)(F)F)ccc1-c1cc(=O)c2cccc(Cl)c2o1)C(=O)O [Example C109, 2-[3-[2-(8-chloro-4-oxo-chromen-2-yl)-5-(trifluoromethyl)phenoxy]propoxy]-2-methyl-propanoic acid]
IC50 [1]: 995 nM

SMILES: COc1cc(OCCO[C@H]2C[C@H](C(=O)O)C2)c(-c2cc(=O)c3cccc(Cl)c3o2)cc1Br [Example C040-B, Trans-3-[2-[4-bromo-2-(8-chloro-4-oxo-chromen-2-yl)-5-methoxy-phenoxy]ethoxy]cyclobutanecarboxylic acid]
IC50 [1]: 17100 nM

SMILES: CCOc1ccc(-c2cc(=O)c3ccc(C(F)(F)F)c(Cl)c3o2)c(OCCOC2CC(C(=O)O)C2)c1 (stereo not shown) [Example C097, 3-[2-[2-[8-chloro-4-oxo-7-(trifluoromethyl)chromen-2-yl]-5-ethoxy-phenoxy]ethoxy]cyclobutanecarboxylic acid]
IC50 [1]: 1310 nM

SMILES: O=C(O)[C@@H]1C[C@H](Oc2cc(Br)ccc2-c2cc(=O)c3cccc(Cl)c3o2)CN1 [Example B075, (2S,4S)-4-[5-bromo-2-(8-chloro-4-oxo-chromen-2-yl)phenoxy]pyrrolidine-2-carboxylic acid]
IC50 [1]: 774 nM

SMILES: CS(=O)(=O)NC(=O)C1CCC(OCCCOc2cc(C(F)(F)F)ccc2-c2cc(=O)c3cccc(Cl)c3o2)C1 (stereo not shown) [Example C124, 3-[3-[2-(8-chloro-4-oxo-chromen-2-yl)-5-(trifluoromethyl)phenoxy]propoxy]-N-methylsulfonyl-cyclopentanecarboxamide]
IC50 [1]: 2840 nM

SMILES: O=C(O)CCCCCCOc1cc(C(F)(F)F)ccc1-c1cc(=O)c2cccc(Cl)c2o1 [Example A066, 7-[2-(8-chloro-4-oxo-chromen-2-yl)-5-(trifluoromethyl)phenoxy]heptanoic acid]
IC50 [1]: 2440 nM

SMILES: Cc1ccc2c(=O)cc(-c3ccccc3OCCO[C@H]3C[C@@H](C(=O)O)C3)oc2c1Cl [Example C029-A, Cis-3-[2-[2-(8-chloro-7-methyl-4-oxo-chromen-2-yl)phenoxy]ethoxy]cyclobutanecarboxylic acid]
IC50 [1]: 3360 nM

SMILES: CSc1ccc(-c2cc(=O)c3cccc(Cl)c3o2)c(OCCO[C@H]2C[C@H](C(=O)O)C2)c1 [Example C064-B, trans-3-[2-[2-(8-chloro-4-oxo-chromen-2-yl)-5-methylsulfanyl-phenoxy]ethoxy]cyclobutanecarboxylic acid]
IC50 [1]: 2930 nM
